For orientation: CC50 means the concentration giving 50% cytotoxicity. A higher CC50 goes with better tolerance by the cells.

Structures can show the parent of a compound that is named as a salt.

The nature of the first data set: in vitro. The conditions noted are these: rat, gh3-tre-luc cells, AC50 (uM) modified / 1000.
`C[C@H]1O[C@@H](O[C@H]2[C@@H](O)C[C@H](O[C@H]3[C@@H](O)C[C@H](O[C@H]4CC[C@@]5(C)[C@H](CC[C@@H]6[C@@H]5C[C@@H](O)[C@]5(C)[C@@H](C7=CC(=O)OC7)CC[C@]65O)C4)O[C@@H]3C)O[C@@H]2C)C[C@H](O)[C@@H]1O` [Digoxin] registered a CC50 at 24 h greater than 90 µM.

Take `CCCCCCOC(=O)CCCCC(=O)OCCCCCC` [Dihexyl hexanedioate]: the CC50 at 24 h is greater than 90 µM.

In turn, `CCCCCCOC(=O)CCCCCCCC(=O)OCCCCCC` [Dihexyl nonanedioate] came in with a CC50 at 24 h greater than 90 µM.

The compound `CCCCCCOC(=O)c1ccccc1C(=O)OCCCCCC` [Dihexyl phthalate] showed a CC50 at 24 h greater than 90 µM.

In the case of `NNc1nnc(NN)c2ccccc12` [Dihydralazine], the CC50 at 24 h is greater than 50 µM.

Take `CC1C(C)(C)C2=C(C(=O)CCC2)C1(C)C` (stereo not drawn) [Dihydro-1,1,2,3,3-pentamethyl-4(5H)-indanone]: the cytotoxic concentration (CC50) at 24 h was greater than 90 µM.

With `CCCCCCCCCCCCCCCC/C=C/C1CC(=O)OC1=O` (stereo not drawn) [Dihydro-3-(octadecenyl)-2,5-furandione], the midpoint of cytotoxicity, the CC50 at 24 h, lay at 36 µM.

For `CC(=O)CCC1=C(C)CCCC1(C)C` [Dihydro-beta-ionone], the CC50 at 24 h is greater than 90 µM.

In the case of `CN1C[C@H](C(=O)N[C@]2(C)O[C@@]3(O)[C@@H]4CCCN4C(=O)[C@H](Cc4ccccc4)N3C2=O)C[C@@H]2c3cccc4[nH]cc(c34)C[C@H]21` [Dihydroergotamine], the CC50 at 24 h was 19.3 µM.

`COc1ccc2c3c1O[C@H]1[C@H](O)CC[C@H]4[C@@H](C2)N(C)CC[C@@]341` [Dihydroisocodeine] came in with a CC50 at 24 h greater than 90 µM.

Regarding `CCCCCCC1(C)CCC(=O)O1` (stereo not drawn) [Dihydrojasmone lactone], the CC50 at 24 h is greater than 90 µM.

Take `COC1=CC(=O)O[C@@H](CCc2ccccc2)C1` [Dihydrokavain]: the 50% cytotoxic concentration (CC50) at 24 h is greater than 100 µM.

In turn, `CN[C@@H]1[C@H](O[C@H]2[C@H](O[C@H]3[C@H](O)[C@@H](O)[C@H](NC(=N)N)[C@@H](O)[C@@H]3NC(=N)N)O[C@@H](C)[C@]2(O)CO)O[C@@H](CO)[C@H](O)[C@H]1O` [Dihydrostreptomycin sulfate] came in with a 50% cytotoxic concentration (CC50) at 24 h greater than 50 µM.

`CC(C)[C@@H](C)/C=C/[C@@H](C)[C@H]1CC[C@H]2/C(=C/C=C3\C[C@@H](O)CC[C@@H]3C)CCC[C@]12C` [Dihydrotachysterol] yielded a cytotoxic concentration (CC50) at 24 h greater than 50 µM.

In turn, `CC(C)COC(=O)CCCCC(=O)OCC(C)C` [Diisobutyl adipate] returned a 50% cytotoxic concentration (CC50) at 24 h greater than 90 µM.

In the case of `CC(C)CC(=O)CC(C)C` [Diisobutyl ketone], the CC50 at 24 h is greater than 90 µM.

`CC(C)COC(=O)c1ccccc1C(=O)OCC(C)C` [Diisobutyl phthalate] registered a CC50 at 24 h greater than 90 µM.

The compound `CC(C)CNCC(C)C` [Diisobutylamine] registered a CC50 at 24 h greater than 90 µM.

As to `CC(C)CCCCCCCOC(=O)CCCCC(=O)OCCCCCCCC(C)C` [Diisodecyl hexanedioate], the CC50 at 24 h was greater than 100 µM.

`CC(C)CCCCCCCOC(=O)c1ccccc1C(=O)OCCCCCCCC(C)C` [Diisodecyl phthalate] displayed a 50% cytotoxic concentration (CC50) at 24 h greater than 90 µM.

`CC(C)CCCCCCOC(=O)C1CCCCC1C(=O)OCCCCCCC(C)C` (stereo not drawn) [Diisononyl cyclohexane-1,2-dicarboxylate] gave a CC50 at 24 h greater than 90 µM.

As for `CC(C)CCCCCCOC(=O)c1ccccc1C(=O)OCCCCCCC(C)C` [Diisononyl phthalate], the half-maximal cytotoxic concentration (CC50) at 24 h was greater than 90 µM.

The compound `CCCCCCC(C)OC(=O)CCCCC(=O)OC(C)CCCCCC` (stereo not drawn) [Diisooctyl adipate] gave a CC50 at 24 h greater than 90 µM.

As for `CC(C)CCCCCOC(=O)c1ccccc1C(=O)OCCCCCC(C)C` [Diisooctyl phthalate], the CC50 at 24 h was greater than 90 µM.

The compound `CC(O)CNCC(C)O` (stereo not drawn) [Diisopropanolamine] came in with a cytotoxic concentration (CC50) at 24 h greater than 90 µM.

Staying with this data set, now noted: rat, gh3-tre-luc cells, AC50 (uM) modified / 1000, Tox21_110001=Tox21_112886; viability, 1 nM T3 present, 24 h.
`CN1CC[C@]23c4c5ccc(O)c4O[C@H]2[C@@H](O)CC[C@H]3[C@H]1C5` [Dihydromorphine] registered a CC50 at 24 h greater than 90 µM.

The same data set, now with this note: rat, gh3-tre-luc cells, AC50 (uM) modified / 1000, Tox21_110001=Tox21_113078; viability, 1 nM T3 present, 24 h.
`CC(C)C[C@H]1C(=O)N2CCC[C@H]2[C@]2(O)O[C@](NC(=O)[C@@H]3C[C@@H]4c5cccc6[nH]cc(c56)C[C@H]4N(C)C3)(C(C)C)C(=O)N12` [Dihydroergocriptine] had a CC50 at 24 h of 39.2 µM.
